Source: patent publication US20250114338A1, “TETRAHYDRO-PYRIDO[3,4-b]INDOLE ESTROGEN RECEPTOR MODULATORS AND USES THEREOF” (Genentech, Inc., priority 2014, published 2025)

The compounds below were run on ER-alpha MCF7 (assay: ER-alpha MCF7 HCS EC50; stated as measured by in vitro cell proliferation assays of Examples 902 and 903). Conditions: Homo sapiens, MCF7, MCF7 cells; Table 2.
Assay type: cell-based
How it was run: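 MCF7 cells seeded 1000-2000 cells/well for 16 h, then treated with nine-point 1:2 DMSO dilution series in quadruplicate at 37 °C, 5% CO2 for 4 days. Viable cells quantified by CellTiter-Glo ATP luminescence; EC50 calculated. Controls: fulvestrant at final 100 nM, DMSO 0.2% v/v.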

EC50 | SMILES
0.552 nM | C[C@@H]1Cc2c([nH]c3ccc(F)cc23)[C@@H](c2c(F)cc(OCCN3CC(CF)C3)cc2F)N1CC(F)(F)CO [Example 359, 3-((1R,3R)-1-(2,6-difluoro-4-(2-(3-(fluoromethyl)azetidin-1-yl)ethoxy)phenyl)-6-fluoro-3-methyl-1,3,4,9-tetrahydro-2H-pyrido[3,4-b]indol-2-yl)-2,2-difluoropropan-1-ol]
9 nM | C[C@H]1Cc2c([nH]c3ccc(F)cc23)[C@H](c2c(F)cc(OCCN3CC(CF)C3)cc2F)N1CC(F)(F)CO [Example 360, 3-((1S,3S)-1-(2,6-difluoro-4-(2-(3-(fluoromethyl)azetidin-1-yl)ethoxy)phenyl)-6-fluoro-3-methyl-1,3,4,9-tetrahydro-2H-pyrido[3,4-b]indol-2-yl)-2,2-difluoropropan-1-ol]
3 nM | C[C@@H]1Cc2c([nH]c3ccccc23)[C@@H](c2c(F)cc(OCCN3CC(CF)C3)cc2F)N1CCC(F)(F)F [Example 361, (1R,3R)-1-[2,6-difluoro-4-[2-[3-(fluoromethyl)azetidin-1-yl]ethoxy]phenyl]-3-methyl-2-(3,3,3-trifluoropropyl)-1,3,4,9-tetrahydropyrido[3,4-b]indole]
> 100 nM | C[C@@H]1Cc2c([nH]c3ccccc23)[C@H](c2c(F)cc(OCCN3CC(CF)C3)cc2F)N1CCC(F)(F)F [Example 362, (1S,3R)-1-[2,6-difluoro-4-[2-[3-(fluoromethyl)azetidin-1-yl]ethoxy]phenyl]-3-methyl-2-(3,3,3-trifluoropropyl)-1,3,4,9-tetrahydropyrido[3,4-b]indole]
0.166 nM | C[C@@H]1Cc2c([nH]c3ccc(F)cc23)[C@@H](c2c(F)cc(OC3CN(CCCF)C3)cc2F)N1CC(F)(F)CO [Example 363, 3-((1R,3R)-1-(2,6-difluoro-4-((1-(3-fluoropropyl)azetidin-3-yl)oxy)phenyl)-6-fluoro-3-methyl-1,3,4,9-tetrahydro-2H-pyrido[3,4-b]indol-2-yl)-2,2-difluoropropan-1-ol]
9 nM | C[C@H]1Cc2c([nH]c3ccc(F)cc23)[C@H](c2c(F)cc(OC3CN(CCCF)C3)cc2F)N1CC(F)(F)CO [Example 364, 3-((1S,3S)-1-(2,6-difluoro-4-((1-(3-fluoropropyl)azetidin-3-yl)oxy)phenyl)-6-fluoro-3-methyl-1,3,4,9-tetrahydro-2H-pyrido[3,4-b]indol-2-yl)-2,2-difluoropropan-1-ol]
8 nM | C[C@@H]1Cc2c([nH]c3ccccc23)[C@@H](c2c(F)cc(NC3CN(CCCF)C3)cc2F)N1C[C@H](C)C(=O)O [Example 367, (2S)-3-[(1R,3R)-1-[2,6-difluoro-4-[[1-(3-fluoropropyl)azetidin-3-yl]amino]phenyl]-3-methyl-1,3,4,9-tetrahydropyrido[3,4-b]indol-2-yl]-2-methyl-propanoic acid]
0.546 nM | C[C@@H]1Cc2c([nH]c3ccc(F)cc23)[C@@H](c2c(F)cc(OC3CN(CCCF)C3)cc2F)N1C[C@](C)(F)CO [Example 368, 3-(1-{2,6-Difluoro-4-[1-(3-fluoro-propyl)-azetidin-3-yloxy]-phenyl}-6-fluoro-3-methyl-1,3,4,9-tetrahydro-beta-carbolin-2-yl)-2-fluoro-2-methyl-propan-1-ol]
24 nM | C[C@H]1Cc2c([nH]c3ccc(F)cc23)[C@H](c2c(F)cc(OC3CN(CCCF)C3)cc2F)N1C[C@@](C)(F)CO [Example 369, 3-((1S,3S)-1-(2,6-difluoro-4-((1-(3-fluoropropyl)azetidin-3-yl)oxy)phenyl)-6-fluoro-3-methyl-1,3,4,9-tetrahydro-2H-pyrido[3,4-b]indol-2-yl)-2-fluoro-2-methylpropan-1-ol]
0.203 nM | C[C@@H]1Cc2c([nH]c3ccc(F)cc23)[C@@H](c2c(F)cc(OC3CN(CCCF)C3)cc2F)N1C[C@@](C)(F)CO [Example 370, 3-((1R,3R)-1-(2,6-difluoro-4-((1-(3-fluoropropyl)azetidin-3-yl)oxy)phenyl)-6-fluoro-3-methyl-1,3,4,9-tetrahydro-2H-pyrido[3,4-b]indol-2-yl)-2-fluoro-2-methylpropan-1-ol]
9 nM | C[C@H]1Cc2c([nH]c3ccc(F)cc23)[C@H](c2c(F)cc(OC3CN(CCCF)C3)cc2F)N1C[C@](C)(F)CO [Example 371, 3-((1S,3S)-1-(2,6-difluoro-4-((1-(3-fluoropropyl)azetidin-3-yl)oxy)phenyl)-6-fluoro-3-methyl-1,3,4,9-tetrahydro-2H-pyrido[3,4-b]indol-2-yl)-2-fluoro-2-methylpropan-1-ol]
0.198 nM | C[C@@H]1Cc2c([nH]c3ccc(F)cc23)[C@@H](c2c(F)cc(NC3CN(CCCF)C3)cc2F)N1CC(F)(F)F [Example 372, N-(3,5-difluoro-4-((1R,3R)-6-fluoro-3-methyl-2-(2,2,2-trifluoroethyl)-2,3,4,9-tetrahydro-1H-pyrido[3,4-b]indol-1-yl)phenyl)-1-(3-fluoropropyl)azetidin-3-amine]
18 nM | C[C@H]1Cc2c([nH]c3ccc(F)cc23)[C@H](c2c(F)cc(NC3CN(CCCF)C3)cc2F)N1CC(F)(F)F [Example 373, N-(3,5-difluoro-4-((1S,3S)-6-fluoro-3-methyl-2-(2,2,2-trifluoroethyl)-2,3,4,9-tetrahydro-1H-pyrido[3,4-b]indol-1-yl)phenyl)-1-(3-fluoropropyl)azetidin-3-amine]

The remaining lines, values behind:

SMILES | EC50
C[C@@H]1Cc2c([nH]c3ccccc23)[C@@H](c2ccc(C(=O)C3CN(CCCF)C3)cc2)N1CC(C)(C)F [Example 346, [4-[(1R,3R)-2-(2-fluoro-2-methyl-propyl)-3-methyl-1,3,4,9-tetrahydropyrido[3,4-b]indol-1-yl]phenyl]-[1-(3-fluoropropyl)azetidin-3-yl]methanone] | 0.399 nM
C[C@H](CN1[C@H](c2c(F)cc(OCCN3CC(CF)C3)cc2F)c2[nH]c3ccccc3c2C[C@H]1C)C(N)=O [Example 347, (R)-3-((1R,3R)-1-(2,6-difluoro-4-(2-(3-(fluoromethyl)azetidin-1-yl)ethoxy)phenyl)-3-methyl-1,3,4,9-tetrahydro-2H-pyrido[3,4-b]indol-2-yl)-2-methylpropanamide] | 14 nM
C[C@H](CN1[C@H](c2c(F)cc(OC3CN(CCCF)C3)cc2F)c2[nH]c3ccccc3c2C[C@H]1C)C(=O)O [Example 348, (R)-3-((1R,3R)-1-(2,6-difluoro-4-((1-(3-fluoropropyl)azetidin-3-yl)oxy)phenyl)-3-methyl-1,3,4,9-tetrahydro-2H-pyrido[3,4-b]indol-2-yl)-2-methylpropanoic acid] | 1 nM
C[C@@H]1Cc2c([nH]c3ccccc23)[C@@H](c2c(F)cc(OC3CN(CCCF)C3)cc2F)N1C[C@H](C)C(=O)O [Example 349, (S)-3-((1R,3R)-1-(2,6-difluoro-4-((1-(3-fluoropropyl)azetidin-3-yl)oxy)phenyl)-3-methyl-1,3,4,9-tetrahydro-2H-pyrido[3,4-b]indol-2-yl)-2-methylpropanoic acid] | 2.03 nM
CC(CN1C(C)Cc2c([nH]c3ccccc23)C1c1c(F)cc(OC2CN(CCCF)C2)cc1F)C(=O)O (stereo not shown) [Example 351, 3-[1-[2,6-difluoro-4-[1-(3-fluoropropyl)azetidin-3-yl]oxy-phenyl]-3-methyl-1,3,4,9-tetrahydropyrido[3,4-b]indol-2-yl]-2-methyl-propanoic acid] | 33 nM
C[C@@H]1Cc2c([nH]c3ccccc23)[C@@H](c2c(F)cc(NCCN3CC(CF)C3)cc2F)N1C[C@@](C)(F)CO [Example 352, (R)-3-((1R,3R)-1-(2,6-difluoro-4-((2-(3-(fluoromethyl)azetidin-1-yl)ethyl)amino)phenyl)-3-methyl-1,3,4,9-tetrahydro-2H-pyrido[3,4-b]indol-2-yl)-2-fluoro-2-methylpropan-1-ol] | 0.685 nM
C[C@@H]1Cc2c([nH]c3ccccc23)[C@@H](c2c(F)cc(NCCN3CC(CF)C3)cc2F)N1C[C@](C)(F)CO [Example 353, (S)-3-((1R,3R)-1-(2,6-difluoro-4-((2-(3-(fluoromethyl)azetidin-1-yl)ethyl)amino)phenyl)-3-methyl-1,3,4,9-tetrahydro-2H-pyrido[3,4-b]indol-2-yl)-2-fluoro-2-methylpropan-1-ol] | 0.033 nM
C[C@H](CN1[C@H](c2c(F)cc(NC3CN(CCCF)C3)cc2F)c2[nH]c3ccccc3c2C[C@H]1C)C(=O)O [Example 354, (2R)-3-[(1R,3R)-1-[2,6-difluoro-4-[[1-(3-fluoropropyl)azetidin-3-yl]amino]phenyl]-3-methyl-1,3,4,9-tetrahydropyrido[3,4-b]indol-2-yl]-2-methyl-propanoic acid] | 1 nM
C[C@H]1Cc2c([nH]c3ccc(F)cc23)[C@H](c2c(F)cc(OCCN3CC(CF)C3)cc2F)N1CC(F)(F)F [Example 355, (1S,3S)-1-(2,6-difluoro-4-(2-(3-(fluoromethyl)azetidin-1-yl)ethoxy)phenyl)-6-fluoro-3-methyl-2-(2,2,2-trifluoroethyl)-2,3,4,9-tetrahydro-1H-pyrido[3,4-b]indole] | 29.2 nM
C[C@@H]1Cc2c([nH]c3ccc(F)cc23)[C@@H](c2c(F)cc(OCCN3CC(CF)C3)cc2F)N1CC(F)(F)F [Example 356, (1R,3R)-1-(2,6-difluoro-4-(2-(3-(fluoromethyl)azetidin-1-yl)ethoxy)phenyl)-6-fluoro-3-methyl-2-(2,2,2-trifluoroethyl)-2,3,4,9-tetrahydro-1H-pyrido[3,4-b]indole] | 0.509 nM
C[C@H]1Cc2c([nH]c3ccc(F)cc23)[C@H](c2c(F)cc(OC3CN(CCCF)C3)cc2F)N1CC(F)(F)F [Example 357, (1S,3S)-1-(2,6-difluoro-4-((1-(3-fluoropropyl)azetidin-3-yl)oxy)phenyl)-6-fluoro-3-methyl-2-(2,2,2-trifluoroethyl)-2,3,4,9-tetrahydro-1H-pyrido[3,4-b]indole] | 26.1 nM
C[C@@H]1Cc2c([nH]c3ccc(F)cc23)[C@@H](c2c(F)cc(OC3CN(CCCF)C3)cc2F)N1CC(F)(F)F [Example 358, (1R,3R)-1-(2,6-difluoro-4-((1-(3-fluoropropyl)azetidin-3-yl)oxy)phenyl)-6-fluoro-3-methyl-2-(2,2,2-trifluoroethyl)-2,3,4,9-tetrahydro-1H-pyrido[3,4-b]indole] | 0.417 nM
